Experimental data from patent publication US9340590B2 (priority 2011, dated 2016).
Positions of bridges follow the written chain, without caps; N, C: chain ends. Non-standard residues stand in square brackets, D forms with d. Residues, ends and D or L forms follow the SMILES beside them. 1Nal = N[C@@H](Cc1cccc2ccccc12)C(=O)O

Experiments:
Assay in all cases: cell-based
hNav1.7 = hNav1.7 (Homo sapiens, UniProt Q15858); format: cell-based; conditions: IonWorks Quattro, use-dependent block, hNav1.7; read-out: IWQ Use Nav1.7
hNav1.5 = hNav1.5 (Homo sapiens, UniProt Q14524); conditions: IonWorks Quattro, use-dependent block, hNav1.5; read-out: IWQ Use Nav1.5
hNav1.3 = hNav1.3 (Homo sapiens, UniProt Q9NY46); conditions: IonWorks Quattro, use-dependent block, hNav1.3; read-out: IWQ Use Nav1.3
hNav1.3, sequence (Q9NY46 whole entry, looked up): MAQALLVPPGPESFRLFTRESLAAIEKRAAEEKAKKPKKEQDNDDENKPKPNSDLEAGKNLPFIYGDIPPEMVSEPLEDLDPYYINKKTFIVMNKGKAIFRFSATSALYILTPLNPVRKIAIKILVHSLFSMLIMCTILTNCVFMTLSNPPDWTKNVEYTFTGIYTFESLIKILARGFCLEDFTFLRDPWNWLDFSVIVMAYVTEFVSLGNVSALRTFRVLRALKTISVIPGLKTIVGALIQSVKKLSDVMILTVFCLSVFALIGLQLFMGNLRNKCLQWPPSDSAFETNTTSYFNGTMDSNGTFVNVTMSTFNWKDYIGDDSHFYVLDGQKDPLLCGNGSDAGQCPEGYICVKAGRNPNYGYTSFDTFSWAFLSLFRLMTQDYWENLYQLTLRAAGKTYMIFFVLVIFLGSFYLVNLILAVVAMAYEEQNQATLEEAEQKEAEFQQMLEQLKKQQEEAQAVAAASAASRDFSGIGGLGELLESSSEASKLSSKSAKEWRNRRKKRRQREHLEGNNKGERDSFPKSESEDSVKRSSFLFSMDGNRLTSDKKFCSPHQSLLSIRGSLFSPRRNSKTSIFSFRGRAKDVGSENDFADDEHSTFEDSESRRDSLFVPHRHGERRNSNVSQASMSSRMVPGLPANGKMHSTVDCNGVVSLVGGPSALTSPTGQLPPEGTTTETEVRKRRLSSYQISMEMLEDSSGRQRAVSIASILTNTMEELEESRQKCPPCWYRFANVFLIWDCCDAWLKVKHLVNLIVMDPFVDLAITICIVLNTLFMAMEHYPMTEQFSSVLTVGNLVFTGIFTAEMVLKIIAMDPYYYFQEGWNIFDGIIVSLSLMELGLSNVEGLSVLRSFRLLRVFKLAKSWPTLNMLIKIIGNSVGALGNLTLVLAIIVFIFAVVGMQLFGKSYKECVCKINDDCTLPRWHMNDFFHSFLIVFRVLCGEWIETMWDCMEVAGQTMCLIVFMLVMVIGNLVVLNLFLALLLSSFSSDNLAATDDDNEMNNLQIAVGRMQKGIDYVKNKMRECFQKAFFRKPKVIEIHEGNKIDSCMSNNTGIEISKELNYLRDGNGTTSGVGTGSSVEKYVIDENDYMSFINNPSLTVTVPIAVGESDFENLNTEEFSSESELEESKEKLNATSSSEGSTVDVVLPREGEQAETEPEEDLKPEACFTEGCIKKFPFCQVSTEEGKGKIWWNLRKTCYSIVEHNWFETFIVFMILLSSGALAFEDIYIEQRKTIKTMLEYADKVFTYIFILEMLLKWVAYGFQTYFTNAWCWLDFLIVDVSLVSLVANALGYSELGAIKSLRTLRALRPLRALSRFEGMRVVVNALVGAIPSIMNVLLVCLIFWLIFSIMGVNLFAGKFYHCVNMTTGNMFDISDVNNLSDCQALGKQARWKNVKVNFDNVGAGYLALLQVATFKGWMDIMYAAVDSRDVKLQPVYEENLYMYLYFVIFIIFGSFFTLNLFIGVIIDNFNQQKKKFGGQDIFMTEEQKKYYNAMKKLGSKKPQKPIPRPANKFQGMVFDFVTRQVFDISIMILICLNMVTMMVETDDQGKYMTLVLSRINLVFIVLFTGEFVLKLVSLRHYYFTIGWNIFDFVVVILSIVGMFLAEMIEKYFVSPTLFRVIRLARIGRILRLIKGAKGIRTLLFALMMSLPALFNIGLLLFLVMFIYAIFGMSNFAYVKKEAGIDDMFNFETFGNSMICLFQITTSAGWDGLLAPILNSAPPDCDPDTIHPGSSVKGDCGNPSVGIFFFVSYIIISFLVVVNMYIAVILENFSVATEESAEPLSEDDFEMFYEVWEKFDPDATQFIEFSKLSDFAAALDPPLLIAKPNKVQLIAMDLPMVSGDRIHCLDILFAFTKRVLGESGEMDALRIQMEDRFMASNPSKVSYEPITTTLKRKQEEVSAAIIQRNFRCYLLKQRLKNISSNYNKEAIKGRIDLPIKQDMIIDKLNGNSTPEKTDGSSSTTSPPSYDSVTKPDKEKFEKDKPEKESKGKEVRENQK

hNav1.7, sequence (Q15858 whole entry, looked up): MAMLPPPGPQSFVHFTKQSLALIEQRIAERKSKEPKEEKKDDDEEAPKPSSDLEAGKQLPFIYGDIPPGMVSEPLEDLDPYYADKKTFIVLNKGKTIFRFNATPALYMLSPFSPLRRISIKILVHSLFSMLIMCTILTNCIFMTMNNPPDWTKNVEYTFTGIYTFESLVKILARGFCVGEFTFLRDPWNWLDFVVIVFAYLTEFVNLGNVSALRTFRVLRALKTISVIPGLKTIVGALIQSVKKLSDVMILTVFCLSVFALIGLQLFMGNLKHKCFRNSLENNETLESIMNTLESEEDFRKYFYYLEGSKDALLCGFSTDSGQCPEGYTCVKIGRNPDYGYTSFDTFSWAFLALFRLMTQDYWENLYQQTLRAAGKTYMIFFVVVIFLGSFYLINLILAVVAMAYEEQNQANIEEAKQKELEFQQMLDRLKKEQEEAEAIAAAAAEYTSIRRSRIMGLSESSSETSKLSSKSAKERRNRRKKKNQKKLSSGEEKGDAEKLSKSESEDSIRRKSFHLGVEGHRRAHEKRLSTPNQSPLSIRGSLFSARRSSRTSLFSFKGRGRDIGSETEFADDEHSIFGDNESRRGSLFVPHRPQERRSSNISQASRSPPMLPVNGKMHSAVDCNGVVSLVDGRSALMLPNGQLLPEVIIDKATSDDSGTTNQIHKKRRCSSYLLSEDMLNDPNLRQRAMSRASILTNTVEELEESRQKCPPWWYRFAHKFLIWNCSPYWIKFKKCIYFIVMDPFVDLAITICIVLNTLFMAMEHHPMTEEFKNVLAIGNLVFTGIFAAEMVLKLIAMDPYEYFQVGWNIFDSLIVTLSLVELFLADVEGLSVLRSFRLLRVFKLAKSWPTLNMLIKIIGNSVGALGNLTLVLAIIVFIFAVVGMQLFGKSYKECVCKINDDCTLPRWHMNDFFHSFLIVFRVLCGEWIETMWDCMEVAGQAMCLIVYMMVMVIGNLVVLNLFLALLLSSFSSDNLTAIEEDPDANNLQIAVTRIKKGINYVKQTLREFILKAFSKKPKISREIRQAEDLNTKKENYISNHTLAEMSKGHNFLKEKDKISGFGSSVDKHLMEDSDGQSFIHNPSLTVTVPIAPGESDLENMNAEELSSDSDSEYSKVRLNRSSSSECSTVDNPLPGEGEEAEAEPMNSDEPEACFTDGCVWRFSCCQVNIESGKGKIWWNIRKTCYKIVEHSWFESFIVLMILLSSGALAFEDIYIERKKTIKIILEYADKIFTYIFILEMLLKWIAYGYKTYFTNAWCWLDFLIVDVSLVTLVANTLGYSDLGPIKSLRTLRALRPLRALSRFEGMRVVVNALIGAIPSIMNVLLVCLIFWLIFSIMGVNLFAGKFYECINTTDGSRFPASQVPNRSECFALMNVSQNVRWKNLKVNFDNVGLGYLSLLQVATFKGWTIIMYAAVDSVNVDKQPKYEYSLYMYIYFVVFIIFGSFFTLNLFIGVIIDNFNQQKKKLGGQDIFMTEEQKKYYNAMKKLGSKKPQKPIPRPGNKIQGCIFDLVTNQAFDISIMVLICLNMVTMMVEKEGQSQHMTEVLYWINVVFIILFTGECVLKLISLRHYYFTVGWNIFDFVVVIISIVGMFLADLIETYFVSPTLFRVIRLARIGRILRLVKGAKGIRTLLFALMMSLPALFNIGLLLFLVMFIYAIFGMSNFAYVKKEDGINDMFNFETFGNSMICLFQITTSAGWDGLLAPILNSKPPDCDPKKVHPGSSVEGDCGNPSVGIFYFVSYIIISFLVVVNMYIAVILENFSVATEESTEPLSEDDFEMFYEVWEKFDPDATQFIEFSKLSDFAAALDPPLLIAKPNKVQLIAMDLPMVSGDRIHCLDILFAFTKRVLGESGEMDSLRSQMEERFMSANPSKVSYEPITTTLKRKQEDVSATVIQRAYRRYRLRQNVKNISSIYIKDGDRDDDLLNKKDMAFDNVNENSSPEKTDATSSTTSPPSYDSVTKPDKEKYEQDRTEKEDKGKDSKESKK

Compound | IC50 (hNav1.7) [nM] | IC50 (hNav1.5) [nM] | IC50 (hNav1.3) [nM]
CC[C@H](C)[C@@H]1NC(=O)[C@@H]2CSSC[C@@H]3NC(=O)[C@H](C(C)C)NC(=O)[C@H](CC(C)C)NC(=O)[C@H](CC(N)=O)NC(=O)[C@@H]4CCCN4C(=O)[C@H](CCCNC(=N)N)NC(=O)[C@H](CSSC[C@H](NC(=O)[C@@H](N)CC(=O)O)C(=O)N[C@@H](CC(C)C)C(=O)NCC(=O)N[C@@H](Cc4ccccc4)C(=O)N[C@@H](CCSC)C(=O)N[C@@H](CCCNC(=N)N)C(=O)N[C@@H](CCCCN)C(=O)N2)NC(=O)[C@H](CSSC[C@@H](C(=O)N[C@@H](CCCCN)C(=O)N[C@@H](Cc2ccc(O)cc2)C(=O)N[C@@H](Cc2cccc4ccccc24)C(=O)N[C@@H](Cc2ccccc2)C(N)=O)NC(=O)[C@H](Cc2c[nH]c4ccccc24)NC(=O)[C@H](CCCNC(=N)N)NC(=O)[C@H](Cc2c[nH]cn2)NC(=O)[C@H]([C@@H](C)O)NC(=O)[C@H](CCCNC(=N)N)NC(=O)[C@H](CO)NC3=O)NC(=O)[C@H](CCCCN)NC(=O)[C@H](CC(=O)O)NC(=O)[C@H](CC(N)=O)NC(=O)[C@H](CC(=O)O)NC(=O)[C@@H]2CCCN2C1=O [compound 442] (H-DCLGFMRKCIPDNDKCCRPNLVCSRTHRWCKY[1Nal]F-NH2; disulfide 2-17, 9-23, 16-30) | 30 | > 5000 | 40
CC[C@H](C)[C@@H]1NC(=O)[C@@H]2CSSC[C@@H]3NC(=O)[C@H](C(C)C)NC(=O)[C@H](CC(C)C)NC(=O)[C@H](CC(N)=O)NC(=O)[C@@H]4CCCN4C(=O)[C@H](CCCNC(=N)N)NC(=O)[C@H](CSSC[C@H](NC(=O)[C@@H](N)CC(=O)O)C(=O)N[C@@H](CC(C)C)C(=O)NCC(=O)N[C@@H](Cc4ccccc4)C(=O)N[C@@H](CCSC)C(=O)N[C@@H](CCCNC(=N)N)C(=O)N[C@@H](CCCCN)C(=O)N2)NC(=O)[C@H](CSSC[C@@H](C(=O)N[C@@H](CCCCN)C(=O)N[C@@H](Cc2c[nH]c4ccccc24)C(=O)N[C@H](C(=O)N[C@@H](Cc2ccccc2)C(N)=O)C(C)C)NC(=O)[C@H](Cc2c[nH]c4ccccc24)NC(=O)[C@H](CCCNC(=N)N)NC(=O)[C@H](Cc2c[nH]cn2)NC(=O)[C@H]([C@@H](C)O)NC(=O)[C@H](CCCNC(=N)N)NC(=O)[C@H](CO)NC3=O)NC(=O)[C@H](CCCCN)NC(=O)[C@H](CC(=O)O)NC(=O)[C@H](CC(N)=O)NC(=O)[C@H](CC(=O)O)NC(=O)[C@@H]2CCCN2C1=O [compound 443] (H-DCLGFMRKCIPDNDKCCRPNLVCSRTHRWCKWVF-NH2; disulfide 2-17, 9-23, 16-30) | 70 | 4920 | 70
CC[C@H](C)[C@@H]1NC(=O)[C@@H]2CSSC[C@@H]3NC(=O)[C@H](C(C)C)NC(=O)[C@H](CC(C)C)NC(=O)[C@H](CC(N)=O)NC(=O)[C@@H]4CCCN4C(=O)[C@H](CCCNC(=N)N)NC(=O)[C@H](CSSC[C@H](NC(=O)[C@@H](N)CC(=O)O)C(=O)N[C@@H](CC(C)C)C(=O)NCC(=O)N[C@@H](Cc4ccccc4)C(=O)N[C@@H](CCSC)C(=O)N[C@@H](CCCNC(=N)N)C(=O)N[C@@H](CCCCN)C(=O)N2)NC(=O)[C@H](CSSC[C@@H](C(=O)N[C@@H](CCCCN)C(=O)N[C@@H](Cc2ccc(O)cc2)C(=O)N[C@@H](Cc2c[nH]c4ccccc24)C(=O)N[C@@H](Cc2ccccc2)C(N)=O)NC(=O)[C@H](Cc2c[nH]c4ccccc24)NC(=O)[C@H](CCCNC(=N)N)NC(=O)[C@H](Cc2c[nH]cn2)NC(=O)[C@H]([C@@H](C)O)NC(=O)[C@H](CCCNC(=N)N)NC(=O)[C@H](CO)NC3=O)NC(=O)[C@H](CCCCN)NC(=O)[C@H](CC(=O)O)NC(=O)[C@H](CC(N)=O)NC(=O)[C@H](CC(=O)O)NC(=O)[C@@H]2CCCN2C1=O [compound 444] (H-DCLGFMRKCIPDNDKCCRPNLVCSRTHRWCKYWF-NH2; disulfide 2-17, 9-23, 16-30) | 30 | > 5000 | 40
CC[C@H](C)[C@@H]1NC(=O)[C@@H]2CSSC[C@@H]3NC(=O)[C@H](C(C)C)NC(=O)[C@H](CC(C)C)NC(=O)[C@H](CC(N)=O)NC(=O)[C@@H]4CCCN4C(=O)[C@H](CCCNC(=N)N)NC(=O)[C@H](CSSC[C@H](NC(=O)[C@@H](N)CC(=O)O)C(=O)N[C@@H](CC(C)C)C(=O)NCC(=O)N[C@@H](Cc4ccccc4)C(=O)N[C@@H](CCSC)C(=O)N[C@@H](CCCNC(=N)N)C(=O)N[C@@H](CCCCN)C(=O)N2)NC(=O)[C@H](CSSC[C@@H](C(=O)N[C@@H](CCCCN)C(=O)N[C@@H](Cc2ccc(O)cc2)C(=O)N[C@H](C(=O)N[C@@H](Cc2ccccc2)C(N)=O)C(C)C)NC(=O)[C@H](Cc2c[nH]c4ccccc24)NC(=O)[C@H](CCCNC(=N)N)NC(=O)[C@H](Cc2c[nH]cn2)NC(=O)[C@H](CC(C)C)NC(=O)[C@H](CCCNC(=N)N)NC(=O)[C@H](CO)NC3=O)NC(=O)[C@H](CCCCN)NC(=O)[C@H](CC(=O)O)NC(=O)[C@H](CC(N)=O)NC(=O)[C@H](CC(=O)O)NC(=O)[C@@H]2CCCN2C1=O [compound 445] (H-DCLGFMRKCIPDNDKCCRPNLVCSRLHRWCKYVF-NH2; disulfide 2-17, 9-23, 16-30) | 30 | > 5000 | 60
CC[C@H](C)[C@@H]1NC(=O)[C@@H]2CSSC[C@@H]3NC(=O)[C@H](C(C)C)NC(=O)[C@H](CC(C)C)NC(=O)[C@H](CC(N)=O)NC(=O)[C@@H]4CCCN4C(=O)[C@H](CCCNC(=N)N)NC(=O)[C@H](CSSC[C@H](NC(=O)[C@@H](N)CC(=O)O)C(=O)N[C@@H](CC(C)C)C(=O)NCC(=O)N[C@@H](Cc4ccccc4)C(=O)N[C@@H](CCSC)C(=O)N[C@@H](CCCNC(=N)N)C(=O)N[C@@H](CCCCN)C(=O)N2)NC(=O)[C@H](CSSC[C@@H](C(=O)N[C@@H](CCCCN)C(=O)N[C@@H](Cc2c[nH]c4ccccc24)C(=O)N[C@H](C(=O)N[C@@H](Cc2ccccc2)C(N)=O)C(C)C)NC(=O)[C@H](Cc2c[nH]c4ccccc24)NC(=O)[C@H](CCCCN)NC(=O)[C@H](Cc2c[nH]cn2)NC(=O)[C@H](CC(C)C)NC(=O)[C@H](CCCNC(=N)N)NC(=O)[C@H](CO)NC3=O)NC(=O)[C@H](CCCCN)NC(=O)[C@H](CC(=O)O)NC(=O)[C@H](CC(N)=O)NC(=O)[C@H](CC(=O)O)NC(=O)[C@@H]2CCCN2C1=O [compound 446] (H-DCLGFMRKCIPDNDKCCRPNLVCSRLHKWCKWVF-NH2; disulfide 2-17, 9-23, 16-30) | 40 | > 5000 | 60
CC[C@H](C)[C@@H]1NC(=O)[C@@H]2CSSC[C@@H]3NC(=O)[C@H](C(C)C)NC(=O)[C@H](CC(C)C)NC(=O)[C@H](CC(N)=O)NC(=O)[C@@H]4CCCN4C(=O)[C@H](CCCNC(=N)N)NC(=O)[C@H](CSSC[C@H](NC(=O)[C@@H](N)CC(=O)O)C(=O)N[C@@H](CC(C)C)C(=O)NCC(=O)N[C@@H](Cc4ccccc4)C(=O)N[C@@H](CCSC)C(=O)N[C@@H](CCCNC(=N)N)C(=O)N[C@@H](CCCCN)C(=O)N2)NC(=O)[C@H](CSSC[C@@H](C(=O)N[C@@H](CCCCN)C(=O)N[C@@H](Cc2ccc(O)cc2)C(=O)N[C@@H](Cc2c[nH]c4ccccc24)C(=O)N[C@@H](Cc2ccccc2)C(N)=O)NC(=O)[C@H](Cc2c[nH]c4ccccc24)NC(=O)[C@H](CCCCN)NC(=O)[C@H](Cc2c[nH]cn2)NC(=O)[C@H](CC(C)C)NC(=O)[C@H](CCCNC(=N)N)NC(=O)[C@H](CO)NC3=O)NC(=O)[C@H](CCCCN)NC(=O)[C@H](CC(=O)O)NC(=O)[C@H](CC(N)=O)NC(=O)[C@H](CC(=O)O)NC(=O)[C@@H]2CCCN2C1=O [compound 447] (H-DCLGFMRKCIPDNDKCCRPNLVCSRLHKWCKYWF-NH2; disulfide 2-17, 9-23, 16-30) | 30 | > 5000 | 20
CC[C@H](C)[C@@H]1NC(=O)[C@@H]2CSSC[C@@H]3NC(=O)[C@H](C(C)C)NC(=O)[C@H](CC(C)C)NC(=O)[C@H](CC(N)=O)NC(=O)[C@@H]4CCCN4C(=O)[C@H](CCCNC(=N)N)NC(=O)[C@H](CSSC[C@H](NC(=O)[C@@H](N)CC(=O)O)C(=O)N[C@@H](CC(C)C)C(=O)NCC(=O)N[C@@H](Cc4ccccc4)C(=O)N[C@@H](Cc4c[nH]c5ccccc45)C(=O)N[C@@H](CCCNC(=N)N)C(=O)N[C@@H](CCCCN)C(=O)N2)NC(=O)[C@H](CSSC[C@@H](C(=O)N[C@@H](CCCCN)C(=O)N[C@@H](Cc2ccc(O)cc2)C(=O)N[C@H](C(=O)N[C@@H](Cc2ccccc2)C(N)=O)C(C)C)NC(=O)[C@H](Cc2c[nH]c4ccccc24)NC(=O)[C@H](CCCNC(=N)N)NC(=O)[C@H](Cc2c[nH]cn2)NC(=O)[C@H]([C@@H](C)O)NC(=O)[C@H](CCCNC(=N)N)NC(=O)[C@H](CO)NC3=O)NC(=O)[C@H](CCCCN)NC(=O)[C@H](CC(=O)O)NC(=O)[C@H](CC(N)=O)NC(=O)[C@H](CC(=O)O)NC(=O)[C@@H]2CCCN2C1=O [compound 448] (H-DCLGFWRKCIPDNDKCCRPNLVCSRTHRWCKYVF-NH2; disulfide 2-17, 9-23, 16-30) | 10 | 2910 | 10
CC[C@H](C)[C@@H]1NC(=O)[C@@H]2CSSC[C@@H]3NC(=O)[C@H](C(C)C)NC(=O)[C@H](CC(C)C)NC(=O)[C@H](CC(N)=O)NC(=O)[C@@H]4CCCN4C(=O)[C@H](CCCNC(=N)N)NC(=O)[C@H](CSSC[C@H](NC(=O)[C@@H](N)CC(=O)O)C(=O)N[C@@H](CC(C)C)C(=O)NCC(=O)N[C@@H](Cc4ccccc4)C(=O)N[C@@H](Cc4c[nH]c5ccccc45)C(=O)N[C@@H](CCCNC(=N)N)C(=O)N[C@@H](CCCCN)C(=O)N2)NC(=O)[C@H](CSSC[C@@H](C(=O)N[C@@H](CCCCN)C(=O)N[C@@H](Cc2c[nH]c4ccccc24)C(=O)N[C@H](C(=O)N[C@@H](Cc2ccccc2)C(N)=O)C(C)C)NC(=O)[C@H](Cc2c[nH]c4ccccc24)NC(=O)[C@H](CCCCN)NC(=O)[C@H](Cc2c[nH]cn2)NC(=O)[C@H]([C@@H](C)O)NC(=O)[C@H](CCCNC(=N)N)NC(=O)[C@H](CO)NC3=O)NC(=O)[C@H](CCCCN)NC(=O)[C@H](CC(=O)O)NC(=O)[C@H](CC(N)=O)NC(=O)[C@H](CC(=O)O)NC(=O)[C@@H]2CCCN2C1=O [compound 449] (H-DCLGFWRKCIPDNDKCCRPNLVCSRTHKWCKWVF-NH2; disulfide 2-17, 9-23, 16-30) | 30 | 2930 | 10
